Values of other authors, collected in patent US20050244465A1, “Drug delivery systems and methods for treatment of an eye” (Allergan, Inc., priority 2004, published 2005).

Conditions: efficacy in vivo; 25 mg hydrocortisone equivalent to 1 mg dexamethasone

**Q.** For `C[C@]12CCC(=O)C=C1CC[C@@H]1[C@@H]2[C@@H](O)C[C@@]2(C)[C@H]1CC[C@]2(O)C(=O)CO` [hydrocortisone], which “potency relative to dexamethasone” value is on record?
**A.** approximately twentyfivefold less potent than dexamethasone
